Consider 12 compounds from patent publication US20110243993A1, “Method for diagnosing and creating immunogenic tolerance in contact allergy and other epithelial immunotoxicological ailments” (priority 2010, published 2011).

“Also recorded” adds a separate entry of the source.

The test system of data set [1] is keratins. In words: Cross-linking of bleb proteins by bidentate haptens. Also noted: species or system human. To be noted: bidentate hapten. The source says: In SDS-PAGE experiments it was shown that thiol-, amine-, and arginine-reactive sensitizers give rise to blebs that contain the same protein bands. In this step, it is thus shown that by adding haptens to keratinocytes, the haptens induce expulsion of a high amount of cryptic epitopes that are normally concealed from the immune system through their intracellular location and/or neoepitopes consisting of haptenated/differently processed peptides and proteins. It was also shown, using a LTQ-FT-ICR mass spectrometer coupled to a nanospray source, that the blebs contain other proteins, for example peptidyl-prolyl cis-trans isomerase A, stathmin, calmodulin, cofilin-1, transgelin-2, 14-3-3 protein sigma, annexin A2, tubulin, keratin 6A 6B 6C, transitional endoplasmic reticulum ATPase, endoplasmin, and importin-5. […] It was also shown that the sensitizing compounds also modify other proteins and that these proteins are released in blebs, as visualized by fluorescent bands on SDS-gels.

Data set [2] deals with anti-nuclear antibodies (ANA). As to the kind of experiment: Levels of anti-nuclear antibodies (ANA) after contact with sensitizing compounds. To be noted: contact with sensitizing compound.
Data set [3] in a line: Induction of oral tolerance in humans allergic to cinnamic aldehyde. It is filed as in vivo, human. To be noted: once a day for 5-100 days, vs placebo (tap water). The source says:
Peptides (including, but not limited to): 1: [Ace]-[…]-[Amide]; 2: [Ace]-[…]-[Amide], 3: [Ace]-[…]-[Amide]. The peptides 1 and 2 represent sequences from keratin 5 and peptide 3 is derived from keratin 14; however, it is the intention that the invention also includes peptides and/or proteins from other proteins, e.g. such as those found in the blebs from keratinocytes that have been exposed to haptens.
Preparation of amino acid containing epitope targets as described in example 3.
Of 20 individuals with a confirmed allergy to the hapten cinnamic aldehyde, 10 are given a test solution of 0.5 mg to 10 g amino acid containing epitope target 1 once a day for 5-100 days. The other 10 individuals are given a placebo (i.e. tap water) to drink according to the same administration scheme and time table as described above. The antibody and T cell epitope mapping profiles for each individual are then evaluated according to procedures in example 4 and 5. Each individual is also patch-tested with cinnamic aldehyde.

In data set [4] the target is T1, cysteine 54 (C54) of K5 (Homo sapiens, UniProt P13647).
T1 construct: endogenous in cells; host or cells: living (primary) human keratinocytes and intact full-thickness human skin
T1 sequence (P13647 1-590): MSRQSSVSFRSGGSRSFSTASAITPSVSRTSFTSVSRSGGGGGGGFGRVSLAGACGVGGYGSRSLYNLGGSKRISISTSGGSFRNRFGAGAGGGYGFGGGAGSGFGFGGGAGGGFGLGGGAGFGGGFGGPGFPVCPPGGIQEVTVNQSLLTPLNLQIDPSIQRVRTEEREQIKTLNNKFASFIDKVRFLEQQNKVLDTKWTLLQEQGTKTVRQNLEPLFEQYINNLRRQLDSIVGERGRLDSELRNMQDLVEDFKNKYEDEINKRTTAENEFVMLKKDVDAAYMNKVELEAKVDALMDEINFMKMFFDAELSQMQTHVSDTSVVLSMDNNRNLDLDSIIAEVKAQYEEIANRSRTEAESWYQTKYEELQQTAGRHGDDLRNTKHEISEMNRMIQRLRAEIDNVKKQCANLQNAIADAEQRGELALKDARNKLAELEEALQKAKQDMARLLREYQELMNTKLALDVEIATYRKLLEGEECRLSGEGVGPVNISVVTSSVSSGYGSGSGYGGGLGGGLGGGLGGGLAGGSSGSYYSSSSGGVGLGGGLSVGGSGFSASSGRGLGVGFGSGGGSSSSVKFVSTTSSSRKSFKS
T1 sequence (P02533 1-472 partner): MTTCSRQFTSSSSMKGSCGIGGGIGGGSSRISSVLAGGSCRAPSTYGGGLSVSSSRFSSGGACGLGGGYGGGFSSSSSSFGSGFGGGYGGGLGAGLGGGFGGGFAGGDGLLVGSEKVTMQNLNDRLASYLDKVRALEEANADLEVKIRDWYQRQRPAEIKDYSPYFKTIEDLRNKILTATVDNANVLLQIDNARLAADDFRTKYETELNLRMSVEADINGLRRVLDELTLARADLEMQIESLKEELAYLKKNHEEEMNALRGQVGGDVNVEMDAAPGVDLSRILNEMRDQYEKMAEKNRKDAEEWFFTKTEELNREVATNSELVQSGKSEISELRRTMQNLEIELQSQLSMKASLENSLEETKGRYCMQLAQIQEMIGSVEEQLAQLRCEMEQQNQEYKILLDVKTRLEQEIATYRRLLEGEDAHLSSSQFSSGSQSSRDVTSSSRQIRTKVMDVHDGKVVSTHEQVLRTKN
In words: Identification of haptenation site with LTQ-FT-ICR mass spectrometer. The source says:
The second step is that the molecules enter the basal cells. Since the extracellular environment is oxidizing, extracellular cysteines are mostly oxidized to disulfides. However, it is in the reduced, intracellular environment that the haptens find reduced thiols to react with. Once inside the cells the compounds will react with available (i.e. not sterically hindered) reduced cysteines (thiol groups). […] Furthermore, it was identified that one of the cysteines that the haptens react with is cysteine 54 (C54) of K5. […] One of the reasons for intense reaction at C54 is presumably its high effective concentration just inside the cell membrane. It is vital in the life of an organism to fail-safe its epithelial integrity, and the bundling of the KIFs ensures a high effective local concentration of the peptide stretch containing C54, ensuring strong welding of the cell to its surroundings. Amino acids nearby in the primary sequence are consequently also located within physical reach of an incoming compound in similarly high effective concentrations. Looking at blebbing brought on by amine- and arginine-reactive compounds from this angle, the residues K71 and R72 are the closest candidates in the primary sequence.

Data set [5] deals with human keratinocytes. As to conditions: for blebbing response of keratinocytes: compound added to human keratinocytes, vehicle DMSO. The source says:
(§1) The third step is that this residue (C54) is situated in a stretch of K5 that has been shown through its interactions with desmoplakin, to be vital in maintaining the integrity of the desmosome. It is known that epithelial cells with a compromised cell-cell (and/or cell-matrix) contact undergo apoptosis (“anoikis”). […] Basal keratinocytes consists of up to 35% of insoluble keratin intermediate filaments (KIFs). As basal keratinocytes occasionally undergo apoptosis, a mechanism of waste removal of the debris of insoluble keratins has evolved. […] The keratin bodies bleb off the cells.

The conditions of data set [6]: naïve mice; cited from earlier work.
For data set [7] the following is noted: mouse, in vivo; cited from earlier work.
Data set [8] relates to serum amyloid P component (SAP). As to the kind of experiment: ELISA detection of serum amyloid protein (SAP) in sera of hapten-exposed mice. To be noted: mice exposed on skin, booster dose on day 10. The protocol:
Extreme sensitizers: Oxazolone (4-Ethoxymethylene-2-phenyl-2-oxazolin-5-one, 1.4 mM) CDNB (1-Chloro-2,4-dinitrobenzene, 7.4 mM)); Strong sensitizers: dBBr (48.6 mM), Glyoxal (ethane-1,2-dione, 1.27 M). DMSO was used as control. All chemicals are purchased from Sigma-Aldrich (Stockholm, Sweden).
Apply 25 μl of the solution to the back of both ears (25 μl on each ear), once daily, on day 1, 2 and 3. Apply a booster dose on day 10 (if necessary). Sacrifice the mice on day 6 (or day 13 if a booster dose is used) by anesthetization with isoflurane (Kent Scientific Corporation, Torrington, Conn., USA) followed by inhalation of carbon dioxide (AGA, Lidingö, Sverige). To collect blood: Use a 1 ml syringe (B. Braun Medical Inc., Bethlehem, Pa., USA) with a 0.4 mm×12 mm injection needle (B. Braun Medical Inc., Bethlehem, Pa., USA). Place the tip of the needle just below the breastbone so that the syringe is linear to the abdomen. Insert the needle just below the breastbone and press it towards the heart. When inside the heart, withdraw blood. It is important to loosen the piston a little from the bottom of the syringe before inserting into the mouse. Carefully rotate the syringe during withdrawal to avoid clotting. […]
The SAP Mouse, ELISA kit 96 tests, quantitative (Alpha Diagnostics International Inc., San Antonio, Tex., USA) is used. […]
In general terms: ELISA stands for enzyme-linked immunosorbent assay.

In data set [9] the test system is K5 and K14. In words: Western blot of blebs using K5 and K14 antibodies. In kind it is cell-based, human. To be noted: blebs from hapten-exposed keratinocytes.
Description: Elevated levels of ANA are common features in various autoimmune diseases such as Sjögrens syndrome (SS), rheumatoid arthritis (RA) and systemic lupus erythematosus (SLE).
as §1
(In general: Immunoblotting shows a protein as a band on a membrane.)

Regarding `Cc1c(CBr)n2c(CBr)c(C)c(=O)n2c1=O` [dBBr, dibromobimane], in data set [1], the “cross links between proteins” value is “cause cross links between for example keratins”. The “levels of anti-nuclear antibodies (ANA)” value in data set [2] was “increased levels”.

In the case of “[Ace]-VSLGGACGAGGYG-[Amide] [amino acid containing epitope target 1]”, in data set [3], the “antibodies and T cells against the amino acid containing epitope target” value is “less antibodies and T cells”; the “reaction to cinnamic aldehyde in the patch test” value was “less reaction”.

For `Cc1c(C)n2c(CBr)c(C)c(=O)n2c1=O` [mBBr], the “covalent modification of C54 of K5” value was “modifies C54 of K5” in data set [4] (intact, full-thickness human skin) and “modify C54 of K5; also recorded: modifies C54 of K5” in data set [4] (living human keratinocytes).

`CCCCCCCCCCCCOS(=O)(=O)[O-].[Na+]` [SDS, Sodium dodecyl sulphate]: the “cellular response other than blebbing” value in data set [5] (human keratinocytes exposed to compound) is “cells seem to “dissolve””.

As for `[Ni]` [nickel], in data set [6], the “protection against the hapten after tolerance induction” value is on record as “some protection”.

For the compound `CCCCCCC(C=O)=Cc1ccccc1` [α-Hexyl-cinnamicaldehyde], the “sensitizer class by EC3-value” in data set [7] is reported as “Weak (key: Extreme: For extreme sensitizers (EC3<0.1%); Strong: For strong sensitizers (0.1%<EC3<1%); Moderate: For moderate sensitizers (1%<EC3<10%); Weak: For weak sensitizers (EC3>10%))”.

With `O=c1[nH]sc2ccccc12` [1,2-Benzisothiazolin-3-one], in [7], the “sensitizer class by EC3-value” was “Moderate (key: Extreme: For extreme sensitizers (EC3<0.1%); Strong: For strong sensitizers (0.1%<EC3<1%); Moderate: For moderate sensitizers (1%<EC3<10%); Weak: For weak sensitizers (EC3>10%))”.

Take `C=O` [Formaldehyde]: in [7], the “sensitizer class by EC3-value” was “Strong (key: Extreme: For extreme sensitizers (EC3<0.1%); Strong: For strong sensitizers (0.1%<EC3<1%); Moderate: For moderate sensitizers (1%<EC3<10%); Weak: For weak sensitizers (EC3>10%))”.

Take `O=CCc1ccccc1` [Phenylacetaldehyde]: in data set [7], the “sensitizer class by EC3-value” is given as “Moderate (key: Extreme: For extreme sensitizers (EC3<0.1%); Strong: For strong sensitizers (0.1%<EC3<1%); Moderate: For moderate sensitizers (1%<EC3<10%); Weak: For weak sensitizers (EC3>10%))”.

In the case of `O=[N+]([O-])c1ccc(Cl)c([N+](=O)[O-])c1` [CDNB, 1-Chloro-2,4-dinitrobenzene], in [8], the “levels of SAP protein in sera” value is recorded as “increased levels”. The “sensitizer class by EC3-value” in data set [7] is recorded as “Extreme (key: Extreme: For extreme sensitizers (EC3<0.1%); Strong: For strong sensitizers (0.1%<EC3<1%); Moderate: For moderate sensitizers (1%<EC3<10%); Weak: For weak sensitizers (EC3>10%))”. Also, the “blebbing response of keratinocytes” value in data set [5] was “provoke a blebbing response”. For the same compound, the “levels of anti-nuclear antibodies (ANA)” value in [2] was “increased levels”.

For `CCOC=C1N=C(c2ccccc2)OC1=O` [Oxazolone, 4-Ethoxymethylene-2-phenyl-2-oxazolin-5-one], the “keratins (K5 and K14) in blebs” value in data set [9] was “contain K5 and K14; also recorded: also contain keratins”. The “protection against the hapten after tolerance induction” value in [6] was “some protection”. The “blebbing response of keratinocytes” value in data set [5] is recorded as “provoke a blebbing response”. In data set [2], the “levels of anti-nuclear antibodies (ANA)” value was “increased levels”.

With `O=CC=O` [Glyoxal, ethane-1,2-dione], in [8], the “levels of SAP protein in sera” value was “increased levels”. The “keratins (K5 and K14) in blebs” value in data set [9] is “contain K5 and K14; also recorded: also contain keratins”. Further, the “sensitizer class by EC3-value” in [7] was “Strong (key: Extreme: For extreme sensitizers (EC3<0.1%); Strong: For strong sensitizers (0.1%<EC3<1%); Moderate: For moderate sensitizers (1%<EC3<10%); Weak: For weak sensitizers (EC3>10%))”. Besides, the “blebbing response of keratinocytes” value in [5] is given as “provoke a blebbing response”. In addition, the “levels of anti-nuclear antibodies (ANA)” value in [2] is “increased levels”.
